Calls of active or inactive are those of the source. No cut-off for these calls is given here.
What was measured:
MDA-MB-231 [1] = test: Downregulation of livin protein level in human MDA-MB-231 cells at 8 uM measured after 24 hrs; format: functional, cell-based
MDA-MB-231 [2] = test: Upregulation of HTRA protein level in human MDA-MB-231 cells at 8 uM measured after 24 hrs; format: functional, cell-based
MDA-MB-231 [3] = test: Downregulation of cIAP-2 protein level in human MDA-MB-231 cells at 8 uM measured after 24 hrs; format: functional, cell-based
MCF-10A = test: Antiproliferative activity against human MCF-10A cells assessed as reduction in cell viability incubated for 24 hrs by MTT assay; format: functional, cell-based
MDA-MB-231 [4] = test: Induction of cell cycle arrest in human MDA-MB-231 cells assessed as accumulation of cells at S phase at 6 uM incubated for 24 hrs by PI staining based flow cytometry analysis (reference value: 12.0%); format: functional
MDA-MB-231 [5] = test: Induction of cell cycle arrest in human MDA-MB-231 cells assessed as accumulation of cells at Sub G0 phase at 8 uM incubated for 24 hrs by PI staining based flow cytometry analysis (reference value: 5.3%); format: functional
MDA-MB-231 [6] = test: Antiproliferative activity against human MDA-MB-231 cells assessed as reduction in cell viability incubated for 24 hrs by MTT assay; format: functional, cell-based; details: MDA-MB-231, 24 h
MDA-MB-231 [7] = test: Upregulation of Bid protein level in human MDA-MB-231 cells at 8 uM measured after 24 hrs; format: functional, cell-based
MDA-MB-231 [8] = test: Upregulation of caspase 8 protein level in human MDA-MB-231 cells at 8 uM measured after 24 hrs; format: functional, cell-based
SK-BR-3 = test: Antiproliferative activity against human SK-BR-3 cells assessed as reduction in cell viability incubated for 24 hrs by MTT assay; format: functional, cell-based; details: SK-BR-3, 24 h
MDA-MB-231 [9] = test: Downregulation of Cdc25c level in human MDA-MB-231 cells at 6 to 10 uM by Western blot analysis; format: functional, cell-based; details: dose 6-10 µM
MDA-MB-231 [10] = test: Induction of morphological changes in human MDA-MB-231 cells assessed as decrease in cell number at 15 uM measured upto 18 hrs by acridine orange and ethidium bromide dual staining based inverted microscopic analysis; format: functional
MDA-MB-231 [11] = test: Induction of apoptosis in human MDA-MB-231 cells assessed as fold increase in caspase 3 level at 8 uM by fluorometric assay; format: functional
MDA-MB-231 [12] = test: Upregulation of TNF-alpha protein level in human MDA-MB-231 cells at 8 uM measured after 24 hrs; format: functional, cell-based
MDA-MB-231 [13] = test: Induction of apoptosis in human MDA-MB-231 cells assessed as late apoptotic cells at 10 uM incubated for 24 hrs by FITC annexin V staining based analysis (reference value: 7.3%); format: functional
MDA-MB-231 [14] = test: Upregulation of caspase 3 protein level in human MDA-MB-231 cells at 8 uM measured after 24 hrs; format: functional, cell-based
MDA-MB-231 [15] = test: Upregulation of FasL protein level in human MDA-MB-231 cells at 8 uM measured after 24 hrs; format: functional, cell-based
MDA-MB-231 [16] = test: Induction of cell cycle arrest in human MDA-MB-231 cells assessed as accumulation of cells at Sub G0 phase at 6 uM incubated for 24 hrs by PI staining based flow cytometry analysis (reference value: 5.3%); format: functional
MDA-MB-231 [17] = test: Antiproliferative activity against human MDA-MB-231 cells assessed as reduction in cell viability at 1 to 50 uM by MTT assay; format: functional, cell-based; details: dose 1-50 µM, time 12-48 hrs
MDA-MB-231 [18] = test: Upregulation of Smac protein level in human MDA-MB-231 cells at 8 uM measured after 24 hrs; format: functional, cell-based
MDA-MB-231 [19] = test: Upregulation of Fas protein level in human MDA-MB-231 cells at 8 uM measured after 24 hrs; format: functional, cell-based
MDA-MB-231 [20] = test: Induction of cell cycle arrest in human MDA-MB-231 cells assessed as accumulation of cells at S phase at 8 uM incubated for 24 hrs by PI staining based flow cytometry analysis (reference value: 12.0%); format: functional
MDA-MB-231 [21] = test: Induction of morphological changes in human MDA-MB-231 cells assessed as leakage of intracellular components at 6 to 10 uM measured 24 hrs by EtBr-AO Live dead Assay; format: functional, cell-based; details: dose 6-10 µM
MDA-MB-231 [22] = test: Induction of apoptosis in human MDA-MB-231 cells assessed as increase in green fluorescence at 6 to 10 uM by acridine orange and ethidium bromide dual staining based analysis; format: functional, cell-based; details: dose 6-10 µM, time 12-48 hrs
MDA-MB-231 [23] = test: Induction of apoptosis in human MDA-MB-231 cells assessed as necrotic cells at 8 uM incubated for 24 hrs by FITC annexin V staining based analysis (reference value: 0.8%); format: functional
MDA-MB-231 [24] = test: Upregulation of TNF-R1 protein level in human MDA-MB-231 cells at 8 uM measured after 24 hrs; format: functional, cell-based
MDA-MB-231 [25] = test: Upregulation of TNF-beta protein level in human MDA-MB-231 cells at 8 uM measured after 24 hrs; format: functional, cell-based
MDA-MB-231 [26] = test: Induction of cell cycle arrest in human MDA-MB-231 cells assessed as accumulation of cells at G2 phase at 6 uM incubated for 24 hrs by PI staining based flow cytometry analysis (reference value: 7.9%); format: functional
MDA-MB-231 [27] = test: Induction of apoptosis in human MDA-MB-231 cells assessed as increase in green fluorescence incubated for 24 hrs by acridine orange and ethidium bromide dual staining based analysis; format: functional, cell-based; details: dose 6-10 µM

## O=C(CCCCCCCCc1ccccc1)c1c(O)cccc1O [MALABARICONE A]
MDA-MB-231 [1]
  Activity: Active
MDA-MB-231 [2]
  Activity: Active
MDA-MB-231 [3]
  Activity: Active
MCF-10A
  IC50: 68.9 µM
MDA-MB-231 [4]
  Activity: 9.7%
MDA-MB-231 [5]
  Activity: 59.7%
MDA-MB-231 [6]
  IC50: 8.81 µM
MDA-MB-231 [7]
  Activity: Active
MDA-MB-231 [8]
  Activity: Active
SK-BR-3
  IC50: 8.39 µM
MDA-MB-231 [9]
  Activity: Active
MDA-MB-231 [10]
  Activity: Active
MDA-MB-231 [11]
  fold change (FC): 8.9
MDA-MB-231 [12]
  Activity: Active
MDA-MB-231 [13]
  Activity: 50.65%
MDA-MB-231 [14]
  Activity: Active
MDA-MB-231 [15]
  Activity: Active
MDA-MB-231 [16]
  Activity: 48.7%
MDA-MB-231 [17]
  Activity: Time-dependent-effect
MDA-MB-231 [18]
  Activity: Active
MDA-MB-231 [19]
  Activity: Active
MDA-MB-231 [20]
  Activity: 9.1%
MDA-MB-231 [21]
  Activity: Active
MDA-MB-231 [22]
  Activity: Time-dependent-effect
MDA-MB-231 [23]
  Activity: 8.05%
MDA-MB-231 [24]
  Activity: Active
MDA-MB-231 [25]
  Activity: Active
MDA-MB-231 [26]
  Activity: 3.9%
MDA-MB-231 [27]
  Activity: Dose-dependent-effect

— ChEMBL document CHEMBL6083210, “Exploring apoptotic induction of malabaricone A in triple-negative breast cancer cells: an acylphenol phyto-entity isolated from the fruit rind of Myristica malabarica Lam” (RSC Med Chem, 2024)
